Results reported in patent US8143275B2, “Use of triazolopyrimidine derivatives as microbicides” (LANXESS Deutschland GmbH, priority 2001, dated 2012).

What was measured:
Assay in all cases: Inhibitory test with giant colonies of Basidiomycetes
Format in all cases: cell-based
Settings in all cases: 6 ppm active compound in agar medium, 26° C., compared to medium without active compound
Coriolus versicolor (P5) = tested on: Coriolus versicolor (P5)
Experimental: (§1) Inhibitory test with giant colonies of Basidiomycetes
(§2) Mycelium pieces were punched out of colonies of Gloeophyllum trabeum (P1), Coniophora puteana (P2), Poria placenta (P3), Lentinus tigrinus (P4), Coriolus versicolor (P5) and Sterum sanguinolentum (P6) and incubated at 26° C. on an agar medium. The inhibition of the growth of the fungal threads on the active-compound-containing medium (concentration of active compound: 6 ppm) was compared to the longitudinal growth of medium without added active compound and rated in inhibition percent.

Coniophora puteana (P2) = tested on: Coniophora puteana (P2)
Experimental: as §1, §2

[1] = tested on: Gloeophyllum trabeum (P1)
Experimental: as §1, §2

Lentinus tigrinus (P4) = tested on: Lentinus tigrinus (P4)
Experimental: as §1, §2

[2] = tested on: Sterum sanguinolentum (P6)
Experimental: as §1, §2

Poria placenta (P3) = tested on: Poria placenta (P3)
Experimental: as §1, §2

Row | Structure (SMILES) | P5: inhibition of the growth of the fungal threads (Coriolus versicolor (P5)) [%] | P2: inhibition of the growth of the fungal threads (Coniophora puteana (P2)) [%] | P1: inhibition of the growth of the fungal threads [1] [%] | P4: inhibition of the growth of the fungal threads (Lentinus tigrinus (P4)) [%] | P6: inhibition of the growth of the fungal threads [2] [%] | P3: inhibition of the growth of the fungal threads (Poria placenta (P3)) [%]
1 | Fc1cc(F)c(-c2c(Cl)nc3ncnn3c2NC2CCCC2)c(F)c1 [No 4] | 100 |  |  |  |  | 
2 | Clc1ccccc1-c1c(Cl)nc2ncnn2c1NC1CCCC1 [No 2] | 100 | 100 | 100 | 94 | 100 | 
3 | Fc1cccc(-c2c(Cl)nc3ncnn3c2NC2CCCC2)c1 [No 1] | 91 | 100 | 80 |  |  | 
4 | CC1CCN(c2c(-c3c(F)cccc3Cl)c(Cl)nc3ncnn23)CC1 [No 10] | 100 | 100 | 100 | 100 | 100 | 100
5 | Fc1cccc(F)c1-c1c(Cl)nc2ncnn2c1NC1CCCC1 [No 3] | 100 | 100 | 100 | 100 | 100 | 
6 | Fc1ccccc1-c1c(Cl)nc2ncnn2c1N1CCCCCC1 [No 7] | 100 | 100 | 100 | 94 | 100 | 
7 | C[C@H](Nc1c(-c2c(F)cc(F)cc2F)c(Cl)nc2ncnn12)C(F)(F)F [No 11] | 100 | 100 | 100 | 100 | 100 | 100
8 | Fc1cccc(F)c1-c1c(Cl)nc2ncnn2c1N1CCCCCC1 [No 8] | 100 | 100 | 100 | 100 | 100 | 100
9 | CC(C)Nc1c(-c2ccc(Cl)cc2Cl)c(Cl)nc2ncnn12 [No 6] | 95 | 100 | 95 |  | 100 | 
10 | CC1CCN(c2c(-c3c(F)cc(F)cc3F)c(Cl)nc3ncnn23)CC1 [No 9] | 100 | 100 | 100 | 100 | 100 | 100
11 | Clc1nc2ncnn2c(NC2CCCC2)c1-c1ccccc1 [No 5] | 100 |  |  |  |  | 
